US20260022143A1, “Cyclic Peptide Inhibitors of IL-23” (JANSSEN PHARMACEUTICA NV, priority 2022, published 2026)
Starred links: 1 amine or outer side, 2 acyl side, 3 side chain; linkers in the order of their positions; H or OH if unused. Positions of bridges follow the written chain, without caps; N, C: chain ends. Non-standard residues stand in square brackets, D forms with d. Residues, ends and D or L forms follow the SMILES beside them. Groups on a side chain read outwards from the residue. *: point of attachment. Me3N+(CH2)2O(CH2)2O(CH2)2CO = C[N+](C)(C)CCOCCOCCC(=O)*; X59 = C[N+](C)(C)CCN(CC*)S(=O)(=O)c1ccccc1[N+](=O)[O-]; CH2CH2OCH2CH2OCH2CH2NMe3+ = C[N+](C)(C)CCOCCOCC*; NH(CH2CH2O)2CH2CH2NMe3+ = C[N+](C)(C)CCOCCOCCN*; Trp(7-Me) = Cc1cccc2c(C[C@H](N)C(=O)O)c[nH]c12; Decanoyl(3,6,9-trioxa) = COCCOCCOCC(=O)*; Dab(NMeAc) = CC(=O)N(C)CC[C@H](N)C(=O)O; 2Nal = N[C@@H](Cc1ccc2ccccc2c1)C(=O)O; X19 = C[N+](C)(C)C[C@@H](CC(=O)O)N*; X24 = C[N+](C)(CCN[*:1])CC(=O)[*:2]; X65 = COCCOCCC[N+](C)(CCCOCCOC)CC*; X22 = CN1CC[N+](C)(CCOCCOCC*)CC1; 3Pal = N[C@@H](Cc1cccnc1)C(=O)O; X54 = CC(=O)N(CC[N+](C)(C)C)CC*; Lys(Me) = CNCCCC[C@H](N)C(=O)O; Pen = CC(C)(S)[C@H](N)C(=O)O; Suc = O=C(CCC(=O)[*:2])[*:1]; X4 = COCCOCCCN(CCCOCCOC)CC*; Thp = NC1(C(=O)O)CCOCC1; X3 = C[N+](C)(C)CCCCC*; X12 = C[N+](C)(C)CCC*; Sar = CNCC(=O)O

Experiments:
IL-23R = molecular target: T1, IL-23R (Homo sapiens, UniProt Q5VWK5); experiment: IL23R Reporter Assay; format: cell-based; details: HEK293 cells containing IL-23R, IL-12RP1 and STAT-inducible firefly luciferase reporter; 10 ng/mL IL-23 (EC90); 5 h at 37° C.; read-out: IL23R Reporter Assay
T1 construct: host or cells: HEK293
T1 sequence (Q5VWK5 24-629): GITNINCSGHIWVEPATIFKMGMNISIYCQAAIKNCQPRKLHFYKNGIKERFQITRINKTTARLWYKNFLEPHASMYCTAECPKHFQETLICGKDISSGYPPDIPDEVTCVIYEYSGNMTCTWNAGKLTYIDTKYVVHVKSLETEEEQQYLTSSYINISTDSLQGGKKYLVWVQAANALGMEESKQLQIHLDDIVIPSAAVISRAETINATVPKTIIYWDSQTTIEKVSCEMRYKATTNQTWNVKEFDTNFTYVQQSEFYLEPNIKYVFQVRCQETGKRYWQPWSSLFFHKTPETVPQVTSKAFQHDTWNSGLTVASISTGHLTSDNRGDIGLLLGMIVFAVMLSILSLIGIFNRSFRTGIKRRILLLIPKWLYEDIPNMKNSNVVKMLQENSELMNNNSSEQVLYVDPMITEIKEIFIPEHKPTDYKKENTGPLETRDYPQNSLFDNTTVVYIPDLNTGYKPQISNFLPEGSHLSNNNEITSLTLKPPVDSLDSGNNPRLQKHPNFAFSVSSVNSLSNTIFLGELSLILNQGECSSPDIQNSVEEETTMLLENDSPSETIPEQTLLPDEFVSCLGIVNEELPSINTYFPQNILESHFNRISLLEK

[1] = Exposed Polar Surface Area (EPSA); format: physicochemical; details: SFC on Chirex 3014 column; sample 1 mM DMSO stock; read-out: EPSA
Method in brief: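 Polarity measured by SFC on a Chirex 3014 column (35 °C, 4 mL/min) with methanol/ammonium formate in CO2 as gradient eluent. Retention times were normalised to EPSA (Å^2) against eight reference compounds.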

IC50 (IL-23R) [nM]	EPSA [1] [A^2]	Structure (SMILES)
1.6	135	COCCOCCCN(CCCOCCOC)CCOc1ccc(C[C@H](NC(=O)[C@H]2NC(=O)[C@H](CCCCN(C)C(C)=O)NC(=O)[C@H](Cc3c[nH]c4c(C)cccc34)NC(=O)[C@H]([C@@H](C)O)NC(=O)[C@H](CC(=O)N(C)C)NC(=O)[C@@H](NC(=O)CCOCCOCC[N+](C)(C)C)C(C)(C)SSC2(C)C)C(=O)N[C@@H](Cc2ccc3ccccc3c2)C(=O)NC2(C(=O)N[C@@H](CCCCN(C)C(C)=O)C(=O)N[C@@H](CC(N)=O)C(=O)N[C@@H](Cc3cccnc3)C(=O)N(C)CC(=O)N(C)C)CCOCC2)cc1 [compound 203, cPEG3aCO-Pen(3)-N(N(Me)2)-T-7MeW-K(NMeAc)-Pen(3)-AEF(BisMEP))-2Nal-THP-K(NMeAc)-N-3Pya-Sar-CON(Me)2] ({Me3N+(CH2)2O(CH2)2O(CH2)2CO}-[Pen]D(NMe2)T[Trp(7-Me)][Lys(Me)](Ac)[Pen]Y(X4)[2Nal][Thp][Lys(Me)](Ac)N[3Pal][Sar]-NMe2; disulfide 1-6)
2.6	145	CC(=O)N(C)CCCC[C@@H]1NC(=O)[C@H](Cc2c[nH]c3c(C)cccc23)NC(=O)[C@H]([C@@H](C)O)NC(=O)[C@H](CC(=O)N(C)C)NC(=O)[C@@H](NC(=O)CCOCCOCC[N+](C)(C)C)C(C)(C)SSC(C)(C)[C@@H](C(=O)N[C@@H](Cc2ccc(OCCN(CC[N+](C)(C)C)S(=O)(=O)c3ccccc3[N+](=O)[O-])cc2)C(=O)N[C@@H](Cc2ccc3ccccc3c2)C(=O)NC2(C(=O)N[C@@H](CCCCN(C)C(C)=O)C(=O)N[C@@H](CC(N)=O)C(=O)N[C@@H](Cc3cccnc3)C(=O)N(C)CC(=O)N(C)C)CCOCC2)NC1=O [compound 206, cPEG3aCO-Pen(3)-N(N(Me)2)-T-7MeW-K(NMeAc)-Pen(3)-AEF(NsCh)-2Nal-THP-K(NMeAc)-N-3Pya-Sar-CON(Me)2] ({Me3N+(CH2)2O(CH2)2O(CH2)2CO}-[Pen]D(NMe2)T[Trp(7-Me)][Lys(Me)](Ac)[Pen]Y(X59)[2Nal][Thp][Lys(Me)](Ac)N[3Pal][Sar]-NMe2; disulfide 1-6)
3.2	139	CC(=O)N(C)CCCC[C@@H]1NC(=O)[C@H](Cc2c[nH]c3c(C)cccc23)NC(=O)[C@H]([C@@H](C)O)NC(=O)[C@H](CC(=O)N(C)C)NC(=O)[C@@H](NC(=O)CCOCCOCC[N+](C)(C)C)C(C)(C)SSC(C)(C)[C@@H](C(=O)N[C@@H](Cc2ccc(OCCN(CC[N+](C)(C)C)C(C)=O)cc2)C(=O)N[C@@H](Cc2ccc3ccccc3c2)C(=O)NC2(C(=O)N[C@@H](CCCCN(C)C(C)=O)C(=O)N[C@@H](CC(N)=O)C(=O)N[C@@H](Cc3cccnc3)C(=O)N(C)CC(=O)N(C)C)CCOCC2)NC1=O [compound 207, cPEG3aCO-Pen(3)-N(N(Me)2)-T-7MeW-K(NMeAc)-Pen(3)-AEF(AcCh)-2Nal-THP-K(NMeAc)-N-3Pya-Sar-CON(Me)2] ({Me3N+(CH2)2O(CH2)2O(CH2)2CO}-[Pen]D(NMe2)T[Trp(7-Me)][Lys(Me)](Ac)[Pen]Y(X54)[2Nal][Thp][Lys(Me)](Ac)N[3Pal][Sar]-NMe2; disulfide 1-6)
5.1	154	CC(=O)N[C@H](CCCCNC(=O)CCC(=O)N[C@H](CC(=O)O)C[N+](C)(C)C)C(=O)N[C@@H]1C(=O)N[C@@H](CC(=O)N(C)C)C(=O)N[C@@H]([C@@H](C)O)C(=O)N[C@@H](Cc2c[nH]c3c(C)cccc23)C(=O)N[C@@H](CCCCN(C)C(C)=O)C(=O)N[C@H](C(=O)N[C@@H](Cc2ccc(OCCOCCOCC[N+](C)(C)C)cc2)C(=O)N[C@@H](Cc2ccc3ccccc3c2)C(=O)NC2(C(=O)N[C@@H](CCN(C)C(C)=O)C(=O)N[C@@H](CC(N)=O)C(=O)N[C@@H](Cc3cccnc3)C(=O)N(C)CC(=O)N(C)C)CCOCC2)C(C)(C)SSC1(C)C [compound 213, MeCO-k(d)-Pen(3)-N(N(Me)2)-T-7MeW-K(NMeAc)-Pen(3)-APEG3F-2Nal-THP-Dab(NMeAc)-N-3Pya-Sar-CON(Me)2] (Ac-[dK]([Suc-X19])[Pen]D(NMe2)T[Trp(7-Me)][Lys(Me)](Ac)[Pen]Y(CH2CH2OCH2CH2OCH2CH2NMe3+)[2Nal][Thp][Dab(NMeAc)]N[3Pal][Sar]-NMe2; disulfide 2-7)
1.4	142	CC(=O)N(C)CCCC[C@@H]1NC(=O)[C@H](Cc2c[nH]c3c(C)cccc23)NC(=O)[C@H]([C@@H](C)O)NC(=O)[C@H](CC(=O)N(C)C)NC(=O)[C@@H](NC(=O)CCOCCOCC[N+](C)(C)C)C(C)(C)SSC(C)(C)[C@@H](C(=O)N[C@@H](Cc2ccc(OCCCCC[N+](C)(C)C)cc2)C(=O)N[C@@H](Cc2ccc3ccccc3c2)C(=O)NC2(C(=O)N[C@@H](CCCCN(C)C(C)=O)C(=O)N[C@@H](CC(N)=O)C(=O)N[C@@H](Cc3cccnc3)C(=O)N(C)CC(=O)NCCOCCOCC[N+](C)(C)C)CCOCC2)NC1=O [compound 220, cPEG3aCO-Pen(3)-N(N(Me)2)-T-7MeW-K(NMeAc)-Pen(3)-TMAPF-2Nal-THP-K(NMeAc)-N-3Pya-Sar-CO(NHPEG3a)] ({Me3N+(CH2)2O(CH2)2O(CH2)2CO}-[Pen]D(NMe2)T[Trp(7-Me)][Lys(Me)](Ac)[Pen]Y(X3)[2Nal][Thp][Lys(Me)](Ac)N[3Pal][Sar]-{NH(CH2CH2O)2CH2CH2NMe3+}; disulfide 1-6)
1.8	134	COCCOCCC[N+](C)(CCCOCCOC)CCOc1ccc(C[C@H](NC(=O)[C@H]2NC(=O)[C@H](CCCCN(C)C(C)=O)NC(=O)[C@H](Cc3c[nH]c4c(C)cccc34)NC(=O)[C@H]([C@@H](C)O)NC(=O)[C@H](CC(=O)N(C)C)NC(=O)[C@@H](NC(=O)CCOCCOCC[N+](C)(C)C)C(C)(C)SSC2(C)C)C(=O)N[C@@H](Cc2ccc3ccccc3c2)C(=O)NC2(C(=O)N[C@@H](CCCCN(C)C(C)=O)C(=O)N[C@@H](CC(N)=O)C(=O)N[C@@H](Cc3cccnc3)C(=O)N(C)CC(=O)N(C)C)CCOCC2)cc1 [compound 221, cPEG3aCO-Pen(3)-N(N(Me)2)-T-7MeW-K(NMeAc)-Pen(3)-AEF(BisMEPa)-2Nal-THP-K(NMeAc)-N-3Pya-Sar-CON(Me)2Â] ({Me3N+(CH2)2O(CH2)2O(CH2)2CO}-[Pen]D(NMe2)T[Trp(7-Me)][Lys(Me)](Ac)[Pen]Y(X65)[2Nal][Thp][Lys(Me)](Ac)N[3Pal][Sar]-NMe2; disulfide 1-6)
3	139	CC(=O)N(C)CCCC[C@@H]1NC(=O)[C@H](Cc2c[nH]c3c(C)cccc23)NC(=O)[C@H]([C@@H](C)O)NC(=O)[C@H](CC(=O)N(C)C)NC(=O)[C@@H](NC(=O)CCOCCOCC[N+](C)(C)C)C(C)(C)SSC(C)(C)[C@@H](C(=O)N[C@@H](Cc2ccc(OCCOCCOCC[N+]3(C)CCN(C)CC3)cc2)C(=O)N[C@@H](Cc2ccc3ccccc3c2)C(=O)NC2(C(=O)N[C@@H](CCCCN(C)C(C)=O)C(=O)N[C@@H](CC(N)=O)C(=O)N[C@@H](Cc3cccnc3)C(=O)N(C)CC(=O)N(C)C)CCOCC2)NC1=O [compound 224, cPEG3aCO-Pen(3)-N(N(Me)2)-T-7MeW-K(NMeAc)-Pen(3)-MPzPEG3F-2Nal-THP-K(NMeAc)-N-3Pya-Sar-CON(Me)2] ({Me3N+(CH2)2O(CH2)2O(CH2)2CO}-[Pen]D(NMe2)T[Trp(7-Me)][Lys(Me)](Ac)[Pen]Y(X22)[2Nal][Thp][Lys(Me)](Ac)N[3Pal][Sar]-NMe2; disulfide 1-6)
4.1	136	COCCOCCOCC(=O)NCC[N+](C)(C)CC(=O)N[C@@H]1C(=O)N[C@@H](CC(=O)N(C)C)C(=O)N[C@@H]([C@@H](C)O)C(=O)N[C@@H](Cc2c[nH]c3c(C)cccc23)C(=O)N[C@@H](CCCCN(C)C(C)=O)C(=O)N[C@H](C(=O)N[C@@H](Cc2ccc(OCCOCCOCC[N+](C)(C)C)cc2)C(=O)N[C@@H](Cc2ccc3ccccc3c2)C(=O)NC2(C(=O)N[C@@H](CCCCN(C)C(C)=O)C(=O)N[C@@H](CC(N)=O)C(=O)N[C@@H](Cc3cccnc3)C(=O)N(C)CC(=O)N(C)C)CCOCC2)C(C)(C)SSC1(C)C [compound 225, mPEG3CO-SP6-Pen(3)-N(N(Me)2)-T-7MeW-K(NMeAc)-Pen(3)-APEG3F-2Nal-THP-K(NMeAc)-N-3Pya-Sar-CON(Me)2] ({Decanoyl(3,6,9-trioxa)}-[X24][Pen]D(NMe2)T[Trp(7-Me)][Lys(Me)](Ac)[Pen]Y(CH2CH2OCH2CH2OCH2CH2NMe3+)[2Nal][Thp][Lys(Me)](Ac)N[3Pal][Sar]-NMe2; disulfide 2-7)
19	145	CC(=O)N(C)CCCC[C@@H]1NC(=O)[C@H](Cc2c[nH]c3c(C)cccc23)NC(=O)[C@H]([C@@H](C)O)NC(=O)[C@H](CC(=O)N(C)C)NC(=O)[C@@H](NC(=O)CCOCCOCC[N+](C)(C)C)C(C)(C)SSC(C)(C)[C@@H](C(=O)N[C@@H](Cc2ccc(OCCC[N+](C)(C)C)cc2)C(=O)N[C@@H](Cc2ccc3ccccc3c2)C(=O)NC2(C(=O)N[C@@H](CCCCN(C)C(C)=O)C(=O)N[C@@H](CC(N)=O)C(=O)N[C@@H](Cc3cccnc3)C(=O)N(C)CC(=O)N(C)C)CCOCC2)NC1=O [compound 229, cPEG3aCO-Pen(3)-N(N(Me)2)-T-7MeW-K(NMeAc)-Pen(3)-TMA3F-2Nal-THP-K(NMeAc)-N-3Pya-Sar-CON(Me)2] ({Me3N+(CH2)2O(CH2)2O(CH2)2CO}-[Pen]D(NMe2)T[Trp(7-Me)][Lys(Me)](Ac)[Pen]Y(X12)[2Nal][Thp][Lys(Me)](Ac)N[3Pal][Sar]-NMe2; disulfide 1-6)
